Test results: the supplement of paper PMC10307832

Legend:
Experiment in all cases: relative viability (nuclei count vs DMSO), 5 days (fraction); higher = more cells survive
[1] = compound: C[C@@H](N)c1ccc(C(=O)Nc2ccnc3[nH]ccc23)cc1
Summary of the method: (§1)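 For viability, nuclei in each treated well were divided by nuclei in vehicle wells and the median across plates was taken. Lung cancer cell lines in 1536-well plates were pinned with five library-drug doses (not always all listed) spaced by √10, cultured 5 days without medium change, and imaged at 4× after Hoechst staining, with plates passing only at control CV below 25% and at least one doubling.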

[2] = compound: C1CNCCC1C2=CC(=NN2)C3=CC=NC=C3
Summary of the method: as §1

Tanzisertib = compound: O[C@H]1CC[C@H](Nc2ncc3nc(Nc4c(F)cc(F)cc4F)n([C@H]4CCOC4)c3n2)CC1 [Tanzisertib]
Summary of the method: as §1

[3] = compound: C1CNCCC1C2=CC(=NN2)C3=CC=NC=C3 + COc1cc2c(Oc3ccc(NC(=O)C4(C(=O)Nc5ccc(F)cc5)CC4)cc3F)ccnc2cc1OCCCN1CCOCC1 [Foretinib] (partner 0.25 µM)
Summary of the method: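 Five library-drug doses in √10 steps were combined with a fixed anchor-drug dose, or a single drug was given alone, by pin tool to lung cancer cell lines in 1536-well plates the day after seeding. Nuclei were stained and counted after 5 days. Relative viability is the nuclei count in treated wells over that in vehicle wells, taken as the median of duplicate plates.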

Row | Cell Line | relative viability ([1]; 0.04 µM) | relative viability ([1]; 0.1265 µM) | relative viability ([1]; 0.4 µM) | relative viability ([1]; 1.265 µM) | relative viability ([1]; 4 µM) | relative viability ([2]; 0.08 µM) | relative viability ([2]; 0.8 µM) | relative viability ([2]; 2.53 µM) | relative viability ([2]; 8 µM) | relative viability (Tanzisertib; 0.08 µM) | relative viability (Tanzisertib; 0.253 µM) | relative viability (Tanzisertib; 0.8 µM) | relative viability (Tanzisertib; 2.53 µM) | relative viability (Tanzisertib; 8 µM) | relative viability ([3]; first compound 0.08 µM) | relative viability ([3]; first compound 0.8 µM) | relative viability ([3]; first compound 2.53 µM) | relative viability ([3]; first compound 8 µM)
1 | NCI-H1651 | 1.02 | 1 | 1.07 | 1.13 | 1.09 | 0.956 | 1.01 | 0.989 | 0.967 | 1.03 | 1.01 | 0.933 | 0.886 | 0.92 | 0.763 | 0.839 | 0.7 | 0.851
2 | NCI-H1975 | 0.838 | 0.875 | 0.942 | 0.72 | 0.602 | 0.969 | 0.873 | 0.998 | 0.964 | 0.935 | 1.02 | 0.934 | 0.955 | 0.874 | 1.07 | 1.03 | 0.962 | 0.932
3 | COR-L23 | 0.913 | 1.17 | 0.941 | 0.878 | 0.646 | 1.02 | 1.19 | 0.991 | 0.982 | 1.06 | 1.04 | 1.07 | 1.06 | 1.04 | 1.07 | 0.946 | 1.01 | 0.931
4 | LOU-NH91 | 0.811 | 0.972 | 0.861 | 0.607 | 0.755 | 1.1 | 1.02 | 1.05 | 0.945 | 0.995 | 0.988 | 0.909 | 0.995 | 0.657 | 0.944 | 0.911 | 1 | 0.936
5 | NCI-H441 | 1.05 | 1.15 | 1.31 | 0.906 | 0.827 | 0.908 | 1.12 | 1.06 | 0.912 | 1.09 | 0.888 | 0.93 | 0.887 | 0.891 | 0.945 | 1.18 | 1.12 | 0.834
6 | NCI-H647 | 0.992 | 0.955 | 0.916 | 0.694 | 0.811 | 1.02 | 0.947 | 1 | 0.868 | 1.21 | 0.976 | 0.973 | 1.12 | 0.779 | 0.922 | 1.04 | 1.27 | 1.32
7 | NCI-H1915 | 0.856 | 1.02 | 0.962 | – | 0.884 | 0.968 | 1.07 | 0.999 | 0.977 | 1.12 | 1.04 | 0.957 | 1.01 | 0.875 | 1.07 | 1.13 | 1.06 | 1.09
8 | NCI-H1299 | 0.967 | 0.985 | 0.963 | 0.955 | 0.862 | 1.04 | 1.05 | 0.978 | 0.976 | 1.06 | 1.03 | 1.01 | 0.998 | 1.08 | 1.1 | 1.08 | 1.07 | 1.08
9 | NCI-H1734 | 0.833 | 1.08 | 0.929 | 0.568 | 0.819 | 0.945 | 1.01 | 1.05 | 0.968 | 1.25 | 1.01 | 0.945 | 1.06 | 0.927 | 0.81 | 0.919 | 0.992 | 0.836
10 | NCI-H1993 | 0.989 | 1.1 | – | 0.9 | 0.996 | 0.889 | 0.911 | 0.978 | 1.02 | 1.06 | 0.952 | 0.969 | 0.822 | 0.786 | 0.857 | 0.744 | 0.887 | 0.808
11 | LK-2 | 1.32 | 0.863 | 1.04 | 0.929 | 1.21 | 0.729 | 1.02 | 1.07 | 1.05 | 1.16 | 1.06 | 1 | 1.03 | 1.03 | 1.05 | 1.27 | 1.03 | 1.42
12 | HCC-78 | 1.23 | 0.933 | 1.23 | 0.72 | 0.92 | 1.04 | 0.706 | 1 | 1.03 | 1.06 | 1.02 | 0.986 | 0.97 | 0.682 | 0.532 | 0.507 | 0.602 | 0.536
13 | NCI-H2405 | 0.653 | 1.16 | 0.998 | 0.569 | 0.376 | 1.04 | 0.901 | 1.02 | 0.961 | 1.12 | 1.02 | 1.1 | 1.04 | 0.695 | 1.05 | 1.04 | 1.11 | 1.05
14 | HOP-62 | 0.957 | 0.949 | 1.03 | 0.884 | 0.899 | 1.09 | 1.11 | 1.05 | 1.02 | 1.1 | 1.03 | 1 | 1.12 | 1.03 | 1.06 | 1.31 | 1.18 | 1.09
15 | NCI-H650 | – | 0.849 | 0.932 | – | 0.785 | 0.946 | 0.933 | 1.08 | 0.998 | 0.973 | 1.01 | 0.975 | 1.14 | 0.411 | 1 | 0.924 | 1.06 | 0.998
16 | NCI-H358 | 0.912 | 0.925 | 0.921 | 0.86 | 0.754 | 0.902 | 0.994 | 1.02 | 0.822 | 1.12 | 0.912 | 0.865 | 0.938 | 0.581 | 0.551 | 0.672 | 0.727 | 0.69
17 | BEN | 0.927 | 0.954 | 1.04 | 1.01 | 0.718 | 0.825 | 0.888 | 0.984 | 1.04 | 0.977 | 1.01 | 0.997 | 1.08 | 0.832 | 0.548 | 0.752 | 0.646 | 0.692
18 | SW 1573 | 1.13 | 1.04 | 1.08 | 0.966 | 0.803 | 0.709 | 1.06 | 1.15 | 1.09 | 1.14 | 0.938 | 1 | 1.01 | 0.909 | 0.679 | 0.967 | 0.901 | 1.03
